Measurements: patent US10138271B2, “Native and agonist CTL epitopes of the MUC1 tumor antigen” (The United States of America, as represented by the …, priority 2012, dated 2018)

Assays:
Format in all cases: cell-based, human
[1] = system: MUC1-C specific CD8+ T-cells; assay: HLA-A3 tetramer analysis of T-cell lines; details: T-cell line after 6 IVS cycles
Description: (§1) Phycoerythrin (PE) labeled HLA-A3-P432-3F10K and HLA-A3-P483-2L3F tetramers were prepared by the NIH Tetramer Core Facility (Atlanta, Ga.), and PE labeled MHC class I human negative tetramer (Kit No T01044) was obtained from Beckman Coulter Inc (Sykesville, Md.). […] The tetramers were used at a 1:100 dilution, and cells were stained for 45 minutes at 4° C. 1×10^5 cells were acquired on an LSRII (BD), and data was analyzed using FlowJo 9.0.1 software (Tree Star Inc, Ashland, Oreg.).
To determine the frequency of MUC1-C specific CD8^+ T-cells in the T-cell lines generated with peptides P432-3F10K and P483-2L3F, HLA-A3-P432-3F10K tetramer and HLA-A3-P483-2L3F tetramer analysis was used. After 6 IVS cycles, 20% and 16% of the T-cells bound to the P432-3F10K and P483-2L3F tetramer, respectively. 0.01% and 0.04% of the cells bound to a negative tetramer.

[2] = system: MUC1-C specific T-cell lines; assay: Cytokine production by MUC1-C specific T-cell lines with peptide-pulsed autologous B-cells (Multi-array)
Description: 2.2×10^6 T-cells and 5.5×10^6 autologous B-cells pulsed with peptide P432-3F10K or P483-2L3F were incubated for 24 h in […] medium per well. The supernatants were analyzed by Multi-array technology (Meso Scale Diagnostics, Gaitersburg, Md.) for detection of cytokines.
To test the ability of the MUC1-C peptides to induce cytokine production, P432-3F10K and P483-2L3F specific T-cell lines (1.1×10^6 T cells/mL) from two patients from the PANVAC ovarian cancer clinical trial described in Example 6 were incubated for 24 hours with autologous B-cells pulsed with P432-3F10K or P483-2L3F for 24 hours. The cytokine levels in supernatant of stimulated and unstimulated cells were evaluated.

[3] = system: CD8+ T cells in PBMCs from cancer patients; assay: Tetramer staining of patient PBMCs after 2 IVS cycles with peptide
Description: as §1
PBMCs from three patients from the clinical vaccine trial were stimulated for 2 IVS cycles with the autologous dendritic cells exposed to peptide P432-3F10K or P483-2L3F, and one week after the last stimulation the cells were subjected to FACS analysis after staining with CD8-FITC (20 μL) and either P432-3F10K/P483-2L3F-tetramer-PE (1 μL) or negative tetramer-PC (1 μL) for 45 minutes.
Results in Tables 9 and 10 are expressed as the frequency of tetramer positive cells from all CD8^+ T-cells.

[4] = system: CD8+ T-cells in PBMCs from carcinoma patients; assay: IFNγ ELISPOT assay, precursor frequency of specific T-cells in patient PBMCs; details: for Patients with specific IFNγ production upon stimulation with peptide: PBMCs pre and three months postvaccination; for Precursor frequency of specific T-cells: peptide 25 μg/mL
Description: Measurement of CD8 immune responses in HLA-A3^+ patients was conducted by enzyme-linked immunosorbent spot assay (ELISPOT) using a modification of the procedure described in Arlen et al., Cancer Immunol. Immunother., 49: 517-529 (2000). The assay was performed using K562-A3 cells as APC. ELISPOT measures the frequency of T cells releasing IFNγ in response to stimulation with a peptide. P432-3F10K, P483-2L3F, no peptide, or an HIV gag peptide (SEQ ID NO: 25; a negative control) were used. Pre- and Post-vaccination PBMCs from each patient were compared. A positive response was scored as a ≥2-fold increase in IFNγ-secreting cells. The spots were analyzed using an ImmunoSpot counter (Cellular Technology Ltd, Shaker Heights, Ohio).
To evaluate the presence of CD8^+ T-cells reactive to the P432-3F10K and P483-2L3F peptides in PBMCs from carcinoma patients enrolled in the clinical vaccine trial, an IFNγ ELISPOT assay was performed. The P432-3F10K and P483-2L3F peptides were used in an ELISPOT assay at a concentration of 25 μg/mL to determine the precursor frequency of specific T-cells. Peptide-pulsed K562-A3 cells were used as APC at an effector:APC ratio of 1:2. HIV peptide and no peptide were used as controls.

| Sequence | T-cells bound to peptide/HLA-A3 tetramer [1] [%] | IFNγ ([2]; Patient I, IVS 7) [pg/mL] | IL-2 ([2]; Patient I, IVS 7) [pg/mL] | IL-6 ([2]; Patient I, IVS 7) [pg/mL] | IL-12p70 ([2]; Patient I, IVS 7) [pg/mL] | TNFα ([2]; Patient I, IVS 7) [pg/mL] | IFNγ ([2]; Patient II, IVS 8) [pg/mL] | IL-2 ([2]; Patient II, IVS 8) [pg/mL] | IL-6 ([2]; Patient II, IVS 8) [pg/mL] | IL-12p70 ([2]; Patient II, IVS 8) [pg/mL] | TNFα ([2]; Patient II, IVS 8) [pg/mL] | Frequency of tetramer positive cells from all CD8+ T-cells ([3]; patient III post-vaccination) [%] | Frequency of tetramer positive cells from all CD8+ T-cells ([3]; patient III pre-vaccination) [%] | Frequency of tetramer positive cells from all CD8+ T-cells ([3]; patient IV post-vaccination) [%] | Frequency of tetramer positive cells from all CD8+ T-cells ([3]; patient IV pre-vaccination) [%] | Frequency of tetramer positive cells from all CD8+ T-cells ([3]; patient V post-vaccination) [%] | Frequency of tetramer positive cells from all CD8+ T-cells ([3]; patient V pre-vaccination) [%] | Patients with specific IFNγ production upon stimulation with peptide [4] | Precursor frequency of specific T-cells ([4]; Patient II, Post) | Precursor frequency of specific T-cells ([4]; Patient II, Pre) | also measured |
| --- | --- | --- | --- | --- | --- | --- | --- | --- | --- | --- | --- | --- | --- | --- | --- | --- | --- | --- | --- | --- | --- |
| ALFIVYLIAK [Peptide P432-3F10K] | 20 | 350 | 40 | 16 | 5 | 180 | 50 | 3 | 80 | 7 | 130 | 59.9 | 44.5 | 23.8 | 22.0 | 22.0 | 31.5 | 5 of 11 | 1/2372 | 1/6316 | Precursor frequency of specific T-cells ([4]; Patient III, Post): 1/5455; Precursor frequency of specific T-cells ([4]; Patient III, Pre): 1/6522; Precursor frequency of specific T-cells ([4]; Patient IV, Post): 1/1322; Precursor frequency of specific T-cells ([4]; Patient IV, Pre): 1/2000; Precursor frequency of specific T-cells ([4]; Patient IX, Post): <1/200000; Precursor frequency of specific T-cells ([4]; Patient IX, Pre): <1/200000; Precursor frequency of specific T-cells ([4]; Patient V, Post): <1/200000; Precursor frequency of specific T-cells ([4]; Patient V, Pre): <1/200000; Precursor frequency of specific T-cells ([4]; Patient VI, Post): 1/21429; Precursor frequency of specific T-cells ([4]; Patient VI, Pre): 1/4511; Precursor frequency of specific T-cells ([4]; Patient VII, Post): <1/200000; Precursor frequency of specific T-cells ([4]; Patient VII, Pre): <1/200000; Precursor frequency of specific T-cells ([4]; Patient VIII, Post): <1/200000; Precursor frequency of specific T-cells ([4]; Patient VIII, Pre): <1/200000; Precursor frequency of specific T-cells ([4]; Patient X, Post): <1/200000; Precursor frequency of specific T-cells ([4]; Patient X, Pre): <1/200000; Precursor frequency of specific T-cells ([4]; Patient XI, Post): 1/7229; Precursor frequency of specific T-cells ([4]; Patient XI, Pre): 1/4196 |
| SLFRSPYEK [Peptide P483-2L3F] | 16 | 180 | 7 | 12 | 5 | 46 | 2590 | 15 | 150 | 9 | 470 | 80.9 | 64.7 | 65.7 | 45.5 | 43.8 | 53.5 | No patient had a specific reaction | <1/200000 | <1/200000 | Precursor frequency of specific T-cells ([4]; Patient III, Post): <1/200000; Precursor frequency of specific T-cells ([4]; Patient III, Pre): <1/200000; Precursor frequency of specific T-cells ([4]; Patient IV, Post): <1/200000; Precursor frequency of specific T-cells ([4]; Patient IV, Pre): <1/200000; Precursor frequency of specific T-cells ([4]; Patient IX, Post): <1/200000; Precursor frequency of specific T-cells ([4]; Patient IX, Pre): <1/200000; Precursor frequency of specific T-cells ([4]; Patient V, Post): <1/200000; Precursor frequency of specific T-cells ([4]; Patient V, Pre): <1/200000; Precursor frequency of specific T-cells ([4]; Patient VI, Post): <1/200000; Precursor frequency of specific T-cells ([4]; Patient VI, Pre): <1/200000; Precursor frequency of specific T-cells ([4]; Patient VII, Post): <1/200000; Precursor frequency of specific T-cells ([4]; Patient VII, Pre): <1/200000; Precursor frequency of specific T-cells ([4]; Patient VIII, Post): <1/200000; Precursor frequency of specific T-cells ([4]; Patient VIII, Pre): <1/200000; Precursor frequency of specific T-cells ([4]; Patient X, Post): <1/200000; Precursor frequency of specific T-cells ([4]; Patient X, Pre): <1/200000; Precursor frequency of specific T-cells ([4]; Patient XI, Post): <1/200000; Precursor frequency of specific T-cells ([4]; Patient XI, Pre): <1/200000 |
